Measured values from patent publication US20060046972A1, “Cytotoxic nucleoside analog compound 003 for treating cancer” (Parker Hughes Institute, priority 2004, published 2006).

Columns and labels:
[1] = tested on: PC-3 prostate cancer cells; test: Confocal laser scanning microscopy of mitotic spindle, PC-3; format: cell-based, human; details: 100 μM
Description: Immunofluorenscence was used to examine the spindle features of human cancer cell lines treated with Compound 003 or 0.5% DMSO. Initially, cells at log phase were seeded onto sterile 22 mm coverslips in six -well culture plates. 24 hours later, the cells were treated with compound 003 for 2 hours at 37° C., 5% C02, fixed in methanol (−20° C. 15 min) followed by a 15 minute incubation with PBS +0.1.% Tx-100. The coverslips were incubated with antibodies raised against α-tubulin, γ-tubulin (Sigma Chemical Co., St Louis, Mo.) (40 min 37° C.), washed in PBS-Tx-100, and incubated with an appropriate secondary antibody conjugated to FITC (Jackson ImmunoResearch, Westgrove, Pa.). Cellular DNA was labeled with 5 μM TOTO3 (Molecular Probes, Eugene, Oreg.) for 20 minutes. Coverslips were immediately inverted onto slides in Vectashield (Vector Labs, Burlingame, Calif.) to prevent photobleaching, sealed with nail varnish and stored at −20° C. The slides were examined using a Bio-Rad MRC-1024 Laser Scanning Confocal Microscope equipped with a Kr/Ar laser (BioRad, Hercules, Calif.) mounted on a Nikon Eclipse E800 upright microscope with high numerical aperture objectives (Nikon, Melville, N.Y.). Digital data were processed using Lasersharp (BioRad) and Adobe Photoshop software (Adobe Systems, Mountain View, Calif.). […]

[2] = tested on: human T leukemia/lymphoma (JURKAT); test: DNA flow cytometry of cell cycle arrest, JURKAT; format: cell-based; details: 100 μM, 48 hour
Description: Exponentially growing tumor cells were cultured at 1×10^6 cells/ml in clonogenic medium (RPMI 1640 medium +1% penicillin/streptomycin +10% heat-inactivated fetal bovine serum, 2 mML-glutamine, and 10 mM Hepes buffer) in the presence or absence of 100 μM compound 003 for 48 hour at 37° C., 5% CO2. At 48 h, cells were washed two times in fresh clonogenic medium, trypsinized, fixed in ice cold ethanol and labeled with propidium iodide to quantify their DNA content, as described previously (See, for example, Navara, et al., 2001, Anticancer Drugs. 12:369). Quantitative DNA analysis was performed on a Becton Dickenson Calibur flow cytometer equipped with a Consort 40 computer using the COTFIT program, which includes CELLCY, a cell cycle distribution function that fits DNA content histograms and calculates-the percentages of cells in G, S, and GM phases of the cell cycle, as described, for example, in Uckun et al., 1996, J Biol Chem. 271, 6389.

BT20 cells = test: Cellular uptake of Compound 003; format: in vitro ADME, human; details: 50 μM, 1 hr
Source text: Intracellular metabolism of Compound 003 was studied in CEM T-lineage lymphoma cell line, BT20 breast cancer cell line, T98 glioblastoma cell line, and Nalm-6 B-lineage leukemia cell line. CEM and Nalm6 cells were maintained in RPMI supplemented with 10% fetal bovine serum, and 1% penicillin/streptomycin. BT20 and T98 cells w.ere cultured in a medium composed of MEM, 10% fetal bovine serum, 0.1-mM of nonessential amino acids and Earles salts, and 1% penicillin/streptomycin. CEM and Nalm6 cells at a density of 10^6 cells per ml were utilized in the drug metabolism study. BT20 and T98 cells were seeded in 6-cm petri-dishes at 4 million cells and 2 million cells per plate, respectively, the day before the experiment. Either one plate of adherent cells or 10 million non-adherent cells was utilized at each time point. Cells were incubated with various concentrations of the compounds up to 24 hrs at 37° C. After incubation, cells were washed 2 times with ice-cold PBS, and extracted by addition of 0.5-1 ml of 60% methanol. […] With efflux experiments, cells 1×10^6/mL (the same density as in the uptake study) were incubated with 100 μM Compound 003 for 1 hr, washed 2 times with ice-cold PBS, and resuspended with culture medium without drug, and the metabolite efflux from cells to the medium was measured after 6 hr of incubation.

Stability in plasma = format: in vitro ADME
Description: (§1) Plasma samples, simulated gastric fluid and intestinal fluids (United State Pharmacopeia XXII methods) were separately spiked with COMPOUND 003 to yield final concentrations of 500 μM. Spiked samples were incubated at 37° C. At a predetermined time (5, 10, 15, 30 60 and 120 minutes), an aliquot (200 μl) of the spiked plasma sample was extracted as described above.

[3] = Stability in simulated gastric fluid; format: in vitro ADME
Description: as §1

COC(=O)C(C)NP(=O)(OCC1OC(n2cc(C)c(=O)[nH]c2=O)CC1N=[N+]=[N-])Oc1ccc(OC)cc1 (centres unmarked) [Compound 003, 3′-azidothymidine 5′-[p-methoxyphenylmethoxyalaninyl phosphate]]
mitotic spindle formation [1]: induced aberrant multipolar spindle formation
cell cycle arrest [2]: G2M cell cycle arrest
uptake of Compound 003, BT20 relative to Nalm6 and CEM cells (BT20 cells): about 2 fold
decomposition product (Stability in plasma): decomposed to mainly form ala-AZT-MP
stability (Stability in plasma; 500 μM, 37° C.): unstable in plasma
share of Compound 003 decomposed (Stability in plasma; 500 μM, 37° C., within 5 minutes): > 99%
decomposition product ([3]; gastric fluid): quickly decomposed to yield a intermediate product
stability ([3]; simulated gastric fluid, 500 μM, 37° C.): unstable
